In US9133207B2, “Tetrandrine derivatives with substituted 5-carbon, preparation method and use thereof” (Hangzhou Bensheng Pharmaceutical Co., Ltd., priority 2011, dated 2015):
≈ marks a conversion by molar mass, not a printed value.

What was measured:
[1] = tested on: PANC-1 (pancreatic cancer); assay: Solid tumor cell growth inhibition, MTT, 72 h (Example 7); assay type: cell-based, human; details: Homo sapiens; 72 h, MTT, PANC-1
Procedure: (§1) Human solid tumor cell lines: Hep-2 (laryngeal carcinoma), A549 (human lung cancer), CaES-17 (esophageal cancer cell), PC-3 (prostate cancer), CNE (nasopharyngeal carcinoma cell) and SK-OV-3 (ovarian cancer cell), all of which are purchased from China Center For Type Culture Collection; RKO (human colon adenocarcinoma cell), MGC 803 (human gastric cancer cell), MG63 (osteosarcoma), and U87 MG (malignant glioma cell), all of which are purchased from Fuxiang Bio-tech Co. Ltd., Shanghai, China; PANC-1 (pancreatic cancer), Huh? (human liver cancer cell), Becap37 (human breast cancer cell), and Hela (human cervical cancer cell), all of which are donated by Cancer Research Institute of Zhejiang University, China.
(§2) Reagents: the same as in Example 5.
(§3) Obtaining 4000 well-growing human solid tumor cells and inoculating them into wells of a 96-well cell culture plate. The culture medium is DMEM High Glucose cell culture medium containing 10% fetal bovine serum. The plate is placed in a carbon dioxide cell incubator (5% CO2) at 37° C. and incubated for 24 hours. After been added with tetrandrine derivatives of different concentration and mixing uniformly, the plate is placed in a carbon dioxide cell incubator (5% CO2) at 37° C. and incubated for 72 hours. Then the viable cell concentration is determined by the MTT method and the cell viability (%) after drug treatment is calculated. In this experiment, the cell viability of control group (not treated with any compound) is set as 100%.

PC-3 (prostate cancer) = assay: as above; assay type: cell-based, human; details: Homo sapiens; 72 h, MTT, PC-3
Procedure: as §1, §2, §3

MG63 (osteosarcoma) = assay: as above; assay type: cell-based, human; details: Homo sapiens; 72 h, MTT, MG-63
Procedure: as §1, §2, §3

[2] = tested on: CaES-17 (esophageal cancer cell); assay: as above; assay type: cell-based, human; details: Homo sapiens, CaEs17; 72 h, MTT, CAES-17
Procedure: as §1, §2, §3

[3] = tested on: RPMI8226 (multiple myeloma); assay: Multiple myeloma cell growth inhibition, MTT, 72 h (Example 6); assay type: cell-based, human; details: Homo sapiens, RPMI-8226; 72 h, MTT, RPMI8226
Procedure: Multiple myeloma and lymphoma cell lines: RPMI8226 (multiple myeloma), purchased from Fuxiang Bio-tech Co. Ltd., Shanghai, China.
as §2
Obtaining 6000 well-growing leukemia cells and inoculating them into wells of a 96-well cell culture plate. The culture medium is a 1640 cell culture medium containing 10% fetal bovine serum. After adding the tetrandrine derivatives of different concentrations and mixing uniformly, placing the plate in a carbon dioxide cell incubator (5% CO2) at 37° C. and incubated for 72 hours. Then the viable cell concentration is determined by the MTT method.

[4] = tested on: K562/adr (drug-resistant, chronic myeloid leukemia, CML); assay: Leukemia cell growth inhibition, MTT, 72 h (Example 5); assay type: cell-based, human; details: Homo sapiens, K562/Adr; 72 h, MTT
Source text: (§4) Leukemia cell lines: leukemia cell lines: K562/adr (drug-resistant, chronic myeloid leukemia, CML), NB4 (acute promyelocytic leukemia, AML), Kasumi-1 (acute myeloid leukemia M2 type, AML-M2), Jurkat (acute lymphoblastic leukemia, ALL), all of which are donated by Cancer Research Institute of Zhejiang University, China; and H9 (acute lymphoblastic leukemia, ALL), which is purchased from China Center for Type Culture Collection.
(§5) Reagents: The standard sample of tetrandrine (TTD) is purchased from Ci Yuan Biotechnology Co., Ltd., Shaanxi, China; and the 5-substituted tetrandrine derivatives of the present invention.
(§6) Obtaining 6000 well-growing leukemia cells and inoculating them into wells of a 96-well cell culture plate. The culture medium is a 1640 cell culture medium containing 10% fetal bovine serum. After adding the tetrandrine derivatives of different concentrations and mixing uniformly, placing the plate in a carbon dioxide cell incubator (5% CO2) at 37° C. and incubating for 72 hours. Then the viable cell concentration is determined by the MTT method.

[5] = tested on: H9 (acute lymphoblastic leukemia, ALL); assay: as above; assay type: cell-based, human; details: Homo sapiens; 72 h, MTT
Source text: as §4, §5, §6

[6] = tested on: Kasumi-1 (acute myeloid leukemia M2 type, AML-M2); assay: as above; assay type: cell-based, human; details: Homo sapiens, Kasumi 1
Source text: as §4, §5, §6

[7] = tested on: Jurkat (acute lymphoblastic leukemia, ALL); assay: as above; assay type: cell-based, human; details: Homo sapiens, Jurkat; 72 h, MTT
Source text: as §4, §5, §6

[8] = tested on: Becap37 (human breast cancer cell); assay: Solid tumor cell growth inhibition, MTT, 72 h (Example 7); assay type: cell-based; details: Homo sapiens; 72 h, MTT, Becap-37
Procedure: as §1, §2, §3

A549 (human lung cancer) = assay: as above; assay type: cell-based; details: Homo sapiens; 72 h, MTT, A549
Procedure: as §1, §2, §3

[9] = tested on: Huh7 (human liver cancer cell); assay: as above; assay type: cell-based; details: Homo sapiens; 72 h, MTT, Huh-7
Procedure: as §1, §2, §3

[10] = tested on: MGC 803 (human gastric cancer cell); assay: as above; assay type: cell-based; details: Homo sapiens
Procedure: as §1, §2, §3

Row | Structure (SMILES) | IC50 [1] [µg/mL] | IC90 [1] [µg/mL] | IC50 (PC-3 (prostate cancer)) [µg/mL] | IC90 (PC-3 (prostate cancer)) [µg/mL] | IC50 (MG63 (osteosarcoma)) [µg/mL] | IC90 (MG63 (osteosarcoma)) [µg/mL] | IC50 [2] [µg/mL] | IC90 [2] [µg/mL] | IC50 [3] [µg/mL] | IC90 [3] [µg/mL] | IC50 [4] [µg/mL] | IC90 [4] [µg/mL] | IC50 [5] [µg/mL] | IC90 [5] [µg/mL] | IC50 [6] [µg/mL] | IC90 [6] [µg/mL] | IC50 [7] [µg/mL] | IC90 [7] [µg/mL] | IC50 [8] [µg/mL] | IC90 [8] [µg/mL] | other results
1 | COc1ccc2cc1Oc1ccc(cc1)C[C@H]1c3cc(c(OC)cc3CCN1C)Oc1c(OC)c(OC)c(COCc3ccc(F)cc3)c3c1[C@H](C2)N(C)CC3 [BS-TE-408] | 6 (≈ 7.89 µM) | 9.9 (≈ 13 µM) | 5.77 (≈ 7.58 µM) | 9.09 (≈ 11.9 µM) | 2.88 (≈ 3.78 µM) | 9.84 (≈ 12.9 µM) | 4.8 (≈ 6.31 µM) | 14.9 (≈ 19.6 µM) | 0.23 (≈ 0.302 µM) | 1.13 (≈ 1.49 µM) | 0.87 (≈ 1.14 µM) | 2.78 (≈ 3.65 µM) | 2.5 (≈ 3.29 µM) | 3.99 (≈ 5.24 µM) | 2.52 (≈ 3.31 µM) | 8 (≈ 10.5 µM) | 2.94 (≈ 3.86 µM) | 6.94 (≈ 9.12 µM) | 4.89 (≈ 6.43 µM) | 36.6 (≈ 48.1 µM) | IC50 (A549 (human lung cancer)): 3.1 µg/mL (≈ 4.07 µM); IC90 (A549 (human lung cancer)): 7.05 µg/mL (≈ 9.27 µM); IC50 [9]: 1.84 µg/mL (≈ 2.42 µM); IC90 [9]: 3.51 µg/mL (≈ 4.61 µM); IC50 [10]: 2.59 µg/mL (≈ 3.4 µM); IC90 [10]: 3.97 µg/mL (≈ 5.22 µM)
2 | COc1ccc2cc1Oc1ccc(cc1)C[C@H]1c3cc(c(OC)cc3CCN1C)Oc1c(OC)c(OC)c(COCc3ccsc3)c3c1[C@H](C2)N(C)CC3 [BS-TE-415] | 2.76 (≈ 3.69 µM) | 4.9 (≈ 6.54 µM) | 3.5 (≈ 4.67 µM) | 5.76 (≈ 7.69 µM) | 1.31 (≈ 1.75 µM) | 4.75 (≈ 6.34 µM) | 1.74 (≈ 2.32 µM) | 5.98 (≈ 7.98 µM) | 0.14 (≈ 0.187 µM) | 0.89 (≈ 1.19 µM) | 0.57 (≈ 0.761 µM) | 2.06 (≈ 2.75 µM) | 1.71 (≈ 2.28 µM) | 2.5 (≈ 3.34 µM) | 1.95 (≈ 2.6 µM) | 6.41 (≈ 8.56 µM) | 2.22 (≈ 2.96 µM) | 5.71 (≈ 7.62 µM) | 1.9 (≈ 2.54 µM) | 3.31 (≈ 4.42 µM) | IC50 (A549 (human lung cancer)): 2.44 µg/mL (≈ 3.26 µM); IC90 (A549 (human lung cancer)): 5.61 µg/mL (≈ 7.49 µM); IC50 [9]: 1.09 µg/mL (≈ 1.46 µM); IC90 [9]: 1.91 µg/mL (≈ 2.55 µM); IC50 [10]: 1.06 µg/mL (≈ 1.42 µM); IC90 [10]: 1.9 µg/mL (≈ 2.54 µM)
3 | COCCCOCc1c2c3c(c(OC)c1OC)Oc1cc4c(cc1OC)CCN(C)[C@H]4Cc1ccc(cc1)Oc1cc(ccc1OC)C[C@@H]3N(C)CC2 [BS-TE-416] | 4.63 (≈ 6.39 µM) | 10 (≈ 13.8 µM) | 4.19 (≈ 5.78 µM) | 9.49 (≈ 13.1 µM) | 1.08 (≈ 1.49 µM) | 2.49 (≈ 3.43 µM) | 2.3 (≈ 3.17 µM) | 16.6 (≈ 22.9 µM) | 0.29 (≈ 0.4 µM) | 2.76 (≈ 3.81 µM) | 0.98 (≈ 1.35 µM) | 5.59 (≈ 7.71 µM) | 2.31 (≈ 3.19 µM) | 4.4 (≈ 6.07 µM) | 2.11 (≈ 2.91 µM) | 8.17 (≈ 11.3 µM) | 3.45 (≈ 4.76 µM) | 11.7 (≈ 16.1 µM) | 1.8 (≈ 2.48 µM) | 4.31 (≈ 5.95 µM) | IC50 (A549 (human lung cancer)): 4.05 µg/mL (≈ 5.59 µM); IC90 (A549 (human lung cancer)): 11 µg/mL (≈ 15.1 µM); IC50 [9]: 2.93 µg/mL (≈ 4.04 µM); IC90 [9]: 5.07 µg/mL (≈ 6.99 µM); IC50 [10]: 5.17 µg/mL (≈ 7.13 µM); IC90 [10]: 8.33 µg/mL (≈ 11.5 µM)
